Experimental findings from ChEMBL document CHEMBL1146377, “Antitrypanosomal activity of quaternary naphthalimide derivatives” (Bioorg Med Chem Lett, 2007) are described below.

Assay [1] relates to Trypanosoma brucei brucei. Nature of the assay: Antitrypanosomal activity against Trypanosoma brucei brucei after 48 hrs. It is filed as functional, organism-based.
Assay [2] in a line: Cytotoxicity against J774.1 cells after 48 hrs. Particulars: Mus musculus, J774.1, 48 h. The class given is cell-based.

Regarding `CC(C)(CN1C(=O)c2cccc3cc(N)cc(c23)C1=O)C[N+](C)(C)CCCCCC[N+](C)(C)CCCN1C(=O)c2ccccc2C1=O`, the results for the IC50 in assay [1] and in assay [2] were 24.2 µM and greater than 100 µM, respectively.

On to `CCC[N+](C)(C)CC(C)(C)CN1C(=O)c2cccc3cccc(c23)C1=O`, for which the IC50 (as a rule, the concentration at which inhibition is half-maximal) was 1.2 µM in assay [1] and greater than 100 µM in assay [2].

Regarding `CC(C)(CN1C(=O)c2cccc3cccc(c23)C1=O)C[N+](C)(C)CCCCCC[N+](C)(C)CCCN1C(=O)c2cccc3cccc(c23)C1=O`, the IC50 is 4.27 µM in assay [1] and greater than 100 µM in assay [2].

On to `CC(C)(CN1C(=O)c2cccc3cc([N+](=O)[O-])cc(c23)C1=O)C[N+](C)(C)CCCCCC[N+](C)(C)CCCN1C(=O)c2ccccc2C1=O`, for which the half-inhibitory concentration (IC50) was 22.9 µM in assay [1] and greater than 100 µM in assay [2].

For `CN(CCCCCCN(C)CCCN1C(=O)c2cccc3cccc(c23)C1=O)CCCN1C(=O)c2cccc3cccc(c23)C1=O`, the values for the half-inhibitory concentration (IC50) in assay [1] and in assay [2] were 0.03 µM and 3.24 µM, respectively.

For `CC(C)(CN1C(=O)c2cccc3cccc(c23)C1=O)C[N+](C)(C)CCCCCCBr`, the IC50 in assay [1] is 0.69 µM; in assay [2] it was greater than 100 µM.

For the compound `CC(C)(CN1C(=O)c2cccc3ccc(N)c(c23)C1=O)C[N+](C)(C)CCCCCC[N+](C)(C)CCCN1C(=O)c2ccccc2C1=O`, the half-inhibitory concentration (IC50) in assay [1] was 5.95 µM; in assay [2], greater than 100 µM.

For `CC(C)(CN1C(=O)c2cccc3ccc([N+](=O)[O-])c(c23)C1=O)C[N+](C)(C)CCCCCC[N+](C)(C)CCCN1C(=O)c2ccccc2C1=O`, the IC50 in assay [1] was 8.78 µM; in assay [2] it was greater than 100 µM.

Take `Cc1ccc2c(c1)C(=O)N(CCC[N+](C)(C)CCCCCC[N+](C)(C)CC(C)(C)CN1C(=O)c3cccc4cccc(c34)C1=O)C2=O`: the concentration for half-maximal inhibition (IC50) in assay [1] is 4.62 µM; in assay [2], greater than 100 µM.

On to `Cc1ccc2c(c1)C(=O)N(CCC[N+](C)(C)CCCCCC[N+](C)(C)CCCN1C(=O)c3cccc4cccc(c34)C1=O)C2=O`, for which the IC50 in assay [1] was 27.9 µM; in assay [2], greater than 100 µM.

For `CC(C)(CN1C(=O)c2cccc3cccc(c23)C1=O)C[N+](C)(C)CCCCCC[N+](C)(C)CC(C)(C)CN1C(=O)c2cccc3cccc(c23)C1=O`, the IC50 in assay [1] was 1.17 µM; in assay [2], greater than 100 µM.

In the case of `NCCC[C@](N)(C(=O)O)C(F)F` [EFLORNITHINE], the concentration for half-maximal inhibition (IC50) in assay [1] came to 22.9 µM. This counts as double-digit micromolar.

`N=C(N)c1ccc(OCCCCCOc2ccc(C(=N)N)cc2)cc1` [PENTAMIDINE ISETHIONATE]: in assay [1], the 50% inhibitory concentration (IC50) was 0.0027 µM.

For the compound `Cc1ccc(C(=O)Nc2ccc(S(=O)(=O)O)c3cc(S(=O)(=O)O)cc(S(=O)(=O)O)c23)cc1NC(=O)c1cccc(NC(=O)Nc2cccc(C(=O)Nc3cc(C(=O)Nc4ccc(S(=O)(=O)O)c5cc(S(=O)(=O)O)cc(S(=O)(=O)O)c45)ccc3C)c2)c1` [SURAMIN HEXASODIUM], in assay [1], the IC50 was found to be 0.3 µM.
